Data on 14 compounds can be found in ChEMBL document CHEMBL1201862, “PubChem BioAssay data set” (2004).

The target of assay [1] is Voltage-dependent T-type calcium channel subunit alpha-1H (Homo sapiens, UniProt O95180). It is filed as functional.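 Also: channel activity triggered by adding a high calcium stimulation buffer.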
Assay [2] concerns the target DNA dC->dU-editing enzyme APOBEC-3G (Homo sapiens, UniProt Q9HC16). In words: Dose Response confirmation of small molecule APOBEC3G DNA Deaminase Inhibitors via a fluorescence-based single-stranded DNA deaminase assay. [Related pubchem assays (depositor defined):AID493012, AID493028]. The format is functional.
The target of assay [3] is Eukaryotic translation initiation factor 4E (Mus musculus, UniProt P63073). In words: blockers of eIF4G binding by eIF4E – biochemical, TR-FRET, dose response (AID 855).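 Also: potency for disrupting eIF4E binding to eIF4GI seen as loss of FRET.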 The format is functional.
The target in assay [4] is T1, Alkaline phosphatase, tissue-nonspecific isozyme (Homo sapiens, UniProt P05186).
T1 sequence (P05186 whole entry): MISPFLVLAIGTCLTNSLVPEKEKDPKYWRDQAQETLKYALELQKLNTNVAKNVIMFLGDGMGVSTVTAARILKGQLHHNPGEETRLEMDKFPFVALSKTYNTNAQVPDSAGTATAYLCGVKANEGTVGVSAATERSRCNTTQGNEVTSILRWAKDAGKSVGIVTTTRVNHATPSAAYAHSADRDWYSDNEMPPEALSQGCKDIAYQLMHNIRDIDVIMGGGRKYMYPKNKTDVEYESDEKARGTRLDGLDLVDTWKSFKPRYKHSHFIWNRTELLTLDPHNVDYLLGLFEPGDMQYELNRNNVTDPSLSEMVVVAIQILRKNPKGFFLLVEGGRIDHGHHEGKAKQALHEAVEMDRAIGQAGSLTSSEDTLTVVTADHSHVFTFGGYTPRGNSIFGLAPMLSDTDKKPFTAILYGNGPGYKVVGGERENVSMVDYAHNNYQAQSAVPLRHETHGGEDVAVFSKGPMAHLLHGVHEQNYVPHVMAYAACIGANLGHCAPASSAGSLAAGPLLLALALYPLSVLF
In words: potency against alkaline phosphatase TNAP – biochemical, luminescent, dose response, SAR follow-up (AID 1056).

Assay [5] deals with Glyceraldehyde-3-phosphate dehydrogenase (Homo sapiens, UniProt P04406).
The next assay deals with X-box-binding protein 1 (Homo sapiens, UniProt P17861). It is filed as functional, Cricetulus griseus.
Assay [6] deals with Intestinal-type alkaline phosphatase (Homo sapiens, UniProt P09923). The assay is described as follows: Dose Response confirmation of uHTS hits from a small molecule inhibitors of human intestinal alkaline phosphatase via a luminescent assay. [Related pubchem assays (depositor defined):AID2544, AID2574]. It is filed as functional.
Assay [7] deals with Nucleotide-binding oligomerization domain-containing protein 2 (Homo sapiens, UniProt Q9HC29). In words: inhibition of NOD2-driven NF-kB reporter – cell-based, luminescence, uHTS, HEK293 (AID 1566). The format is functional.
The test system of assay [8] is HEK293. In words: NOD2 signaling inhibitors in MDP-stimulated cells, cell-based, uHTS, luminescence (AID 2001). The format is functional. The settings on record: Homo sapiens.
Assay [9] has as its system HEK293. In words: cells. As to conditions: Homo sapiens. The format is functional, cell-based.
The subject of assay [10] is HEK293. In words: cells. The format is functional, cell-based. The settings on record: Homo sapiens. This is another data set of the same source.
Assay [11] has as its system HEK293. The assay is described as follows: inhibition of NOD1-driven NF-kB reporter – cell-based, luminescence, uHTS, primary screen (AID 1578). As to conditions: Homo sapiens. The format is functional.
In assay [12] the test system is HEK293. The assay is described as follows: cells. The format is functional, cell-based. As to conditions: Homo sapiens. This is another data set of the same source.
The target in the next assay is T2, Protein skinhead-1 (Caenorhabditis elegans, UniProt P34707).
T2 sequence (P34707 whole entry): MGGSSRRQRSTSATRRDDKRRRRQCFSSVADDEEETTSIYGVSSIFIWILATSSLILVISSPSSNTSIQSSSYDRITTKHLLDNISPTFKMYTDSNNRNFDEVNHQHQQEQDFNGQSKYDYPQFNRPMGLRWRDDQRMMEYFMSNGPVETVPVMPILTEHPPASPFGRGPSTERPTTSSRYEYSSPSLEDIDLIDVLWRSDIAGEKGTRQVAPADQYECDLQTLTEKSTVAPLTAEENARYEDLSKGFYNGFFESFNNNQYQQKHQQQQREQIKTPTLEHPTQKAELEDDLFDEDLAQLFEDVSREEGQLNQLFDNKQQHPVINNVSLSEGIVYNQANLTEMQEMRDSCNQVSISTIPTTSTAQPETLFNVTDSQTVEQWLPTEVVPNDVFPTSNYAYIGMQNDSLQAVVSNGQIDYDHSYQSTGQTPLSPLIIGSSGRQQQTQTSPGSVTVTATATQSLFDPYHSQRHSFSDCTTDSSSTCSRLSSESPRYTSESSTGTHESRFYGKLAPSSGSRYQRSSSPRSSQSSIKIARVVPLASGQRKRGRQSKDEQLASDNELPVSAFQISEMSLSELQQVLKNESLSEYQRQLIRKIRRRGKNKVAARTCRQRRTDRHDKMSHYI
It is filed as functional.

For a further assay, the system named is Streptococcus. In words: GAS UMAA2166 growth inhibition – luminescence, BacTiterGlo, counter-screen for streptokinase expression inhibitor project, dose response (AID 1915).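 Also: potency for reduction of bacterial viability or growth.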 The format is functional, organism-based.
In a further assay the target is T3, Streptokinase A (Streptococcus pyogenes serotype M1, UniProt P10520).
T3 sequence (P10520 whole entry): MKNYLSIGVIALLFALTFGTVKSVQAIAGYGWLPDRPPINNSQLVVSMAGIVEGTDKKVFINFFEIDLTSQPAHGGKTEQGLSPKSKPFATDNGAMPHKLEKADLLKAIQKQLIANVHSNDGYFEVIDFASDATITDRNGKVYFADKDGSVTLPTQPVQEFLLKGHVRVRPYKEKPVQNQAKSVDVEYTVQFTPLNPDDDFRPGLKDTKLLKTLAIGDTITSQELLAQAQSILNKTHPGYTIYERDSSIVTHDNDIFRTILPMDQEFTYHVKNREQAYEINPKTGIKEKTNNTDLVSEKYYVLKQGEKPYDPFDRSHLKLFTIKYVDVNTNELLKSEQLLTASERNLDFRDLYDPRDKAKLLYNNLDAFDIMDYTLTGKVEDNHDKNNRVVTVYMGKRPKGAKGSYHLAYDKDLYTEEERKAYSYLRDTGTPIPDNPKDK
In words: viability-normalized secreted streptokinase activity reduction – plasminogen activation absorbance, OD405, dose response (AID 1914).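 Also: secreted streptokinase activity via plasminogen activation per viability signal from cell pellet.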 The format is functional, Streptococcus pyogenes M1 GAS.

In assay [13] the test system is Streptococcus sp. 'group A'. In words: Streptococcus pyogenes SK(-)GAS viability under kanamycin – luminescence, BacTiterGlo, confirmation, counter-screen for streptokinase expression inhibitor project, dose response (AID 1900). It is filed as functional, organism-based.
Assay [14] in a line: Luminescence Cell-Based Dose Confirmation HTS to Identify Activators of 5'UTR Stem-Loop Driven Alpha-Synuclein mRNA Translation in H4 Neuroglioblastoma Cells. [Related pubchem assays: 1829 (Project Summary), 1814 (Primary HTS)]. The format is functional.
In assay [15] the target is G-protein coupled receptor 55 (Homo sapiens, UniProt Q9Y2T6). The assay is described as follows: selective activators of receptor GPR55 – imaging, U2OS cells, beta-arrestin-GFP redistribution, primary screen (AID 1961). The format is functional.
Assay [16] is described as follows: Luminescence Cell-Based Dose Response HTS to Identify Activators of Luciferase Translation or Activity in H4 […] Cells. [Related pubchem assays: 1829 (Project Summary), 1814 (Primary HTS)]. It is filed as functional.
In another assay the test system is H4. The assay is described as follows: Luminescence Cell-Based Dose Response HTS to Identify Activators of 5'UTR Stem-Loop Driven Prion Protein mRNA Translation in H4 Neuroglioblastoma Cells. [Related pubchem assays: 1829 (Project Summary), 1814 (Primary HTS)]. It is filed as functional. As to conditions: Homo sapiens.
The next assay has as its target Ion channel NompC (Danio rerio, UniProt Q7T1G6). In words: Dose response cell-based high-throughput screening assay for agonists of the transient receptor potential channel N1 (TRPN1). [Related pubchem assays (depositor defined):AID1424, AID1448]. It is filed as functional.
The next assay addresses Mucolipin-3 (Homo sapiens, UniProt Q8TDD5). The assay is described as follows: Fluorescence counterscreen assay for […] agonists: dose response cell-based high-throughput screening assay to identify agonists of the transient receptor potential channel ML3 (TRPML3). [Related pubchem assays: 1424, 1448 ]. The format is functional. On the technique in general: Counterscreens check selectivity or assay interference.

The target of assay [17] is T4, Long-chain-fatty-acid--AMP ligase FadD28 (Mycobacterium tuberculosis, UniProt P9WQ59).
T4 sequence (P9WQ59 whole entry): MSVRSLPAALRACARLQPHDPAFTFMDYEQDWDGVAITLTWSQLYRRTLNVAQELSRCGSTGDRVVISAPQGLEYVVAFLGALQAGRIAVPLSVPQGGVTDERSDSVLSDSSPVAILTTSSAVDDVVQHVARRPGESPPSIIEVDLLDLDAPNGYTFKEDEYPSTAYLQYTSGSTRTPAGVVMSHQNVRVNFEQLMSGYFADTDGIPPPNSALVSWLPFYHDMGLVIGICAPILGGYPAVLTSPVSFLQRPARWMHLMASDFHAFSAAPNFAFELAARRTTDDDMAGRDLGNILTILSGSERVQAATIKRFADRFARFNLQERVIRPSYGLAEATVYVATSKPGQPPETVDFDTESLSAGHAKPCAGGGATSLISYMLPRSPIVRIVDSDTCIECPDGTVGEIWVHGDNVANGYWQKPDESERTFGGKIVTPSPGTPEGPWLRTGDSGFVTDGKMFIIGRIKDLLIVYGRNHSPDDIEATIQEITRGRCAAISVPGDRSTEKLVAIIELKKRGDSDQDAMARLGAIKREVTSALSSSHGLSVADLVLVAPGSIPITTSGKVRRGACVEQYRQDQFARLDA
In words: Fluorescence polarization aasay to screen for inhibitors that compete for the binding of FadD28 to a bisubstrate Measured in Biochemical System Using Plate Reader - 2147-01_Inhibitor_Dose_CherryPick_Activity. The format is functional, Mycobacterium tuberculosis H37Rv. (In fluorescence polarisation assays a small probe gives low polarisation when free and higher when bound to something large.)

The target of assay [18] is DNA damage-inducible transcript 3 protein (Mus musculus, UniProt P35639). It is filed as functional, Cricetulus griseus.
The target of assay [19] is Alkaline phosphatase, placental type (Homo sapiens, UniProt P05187). The assay is described as follows: human placental alkaline phosphatase inhibition – biochemical, luminescence, confirmation (AID 1512). The format is functional.

Activity calls are given as the source filed them.
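For Absolute IC50 (XBP1) in this document: confirmatory dose-response counter-screen serving a CHOP assay.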

Eukaryotic translation initiation factor 4E, sequence (P63073 whole entry): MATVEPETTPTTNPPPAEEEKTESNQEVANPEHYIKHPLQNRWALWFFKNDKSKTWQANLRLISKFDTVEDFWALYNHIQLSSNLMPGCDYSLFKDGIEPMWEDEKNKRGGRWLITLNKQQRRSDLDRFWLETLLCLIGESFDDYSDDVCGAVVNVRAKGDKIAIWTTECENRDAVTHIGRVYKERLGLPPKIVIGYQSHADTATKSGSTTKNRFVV
Glyceraldehyde-3-phosphate dehydrogenase, sequence (P04406 whole entry): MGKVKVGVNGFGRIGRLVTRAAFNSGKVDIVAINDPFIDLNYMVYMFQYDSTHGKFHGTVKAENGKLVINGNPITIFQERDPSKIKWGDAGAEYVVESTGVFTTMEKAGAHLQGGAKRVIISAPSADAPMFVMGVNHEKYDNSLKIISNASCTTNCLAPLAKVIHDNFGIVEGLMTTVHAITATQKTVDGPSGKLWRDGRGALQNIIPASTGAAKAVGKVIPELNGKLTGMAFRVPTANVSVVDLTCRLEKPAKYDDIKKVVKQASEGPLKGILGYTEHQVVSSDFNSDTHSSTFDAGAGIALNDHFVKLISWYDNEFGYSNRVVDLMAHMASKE
Voltage-dependent T-type calcium channel subunit alpha-1H, sequence (O95180 whole entry): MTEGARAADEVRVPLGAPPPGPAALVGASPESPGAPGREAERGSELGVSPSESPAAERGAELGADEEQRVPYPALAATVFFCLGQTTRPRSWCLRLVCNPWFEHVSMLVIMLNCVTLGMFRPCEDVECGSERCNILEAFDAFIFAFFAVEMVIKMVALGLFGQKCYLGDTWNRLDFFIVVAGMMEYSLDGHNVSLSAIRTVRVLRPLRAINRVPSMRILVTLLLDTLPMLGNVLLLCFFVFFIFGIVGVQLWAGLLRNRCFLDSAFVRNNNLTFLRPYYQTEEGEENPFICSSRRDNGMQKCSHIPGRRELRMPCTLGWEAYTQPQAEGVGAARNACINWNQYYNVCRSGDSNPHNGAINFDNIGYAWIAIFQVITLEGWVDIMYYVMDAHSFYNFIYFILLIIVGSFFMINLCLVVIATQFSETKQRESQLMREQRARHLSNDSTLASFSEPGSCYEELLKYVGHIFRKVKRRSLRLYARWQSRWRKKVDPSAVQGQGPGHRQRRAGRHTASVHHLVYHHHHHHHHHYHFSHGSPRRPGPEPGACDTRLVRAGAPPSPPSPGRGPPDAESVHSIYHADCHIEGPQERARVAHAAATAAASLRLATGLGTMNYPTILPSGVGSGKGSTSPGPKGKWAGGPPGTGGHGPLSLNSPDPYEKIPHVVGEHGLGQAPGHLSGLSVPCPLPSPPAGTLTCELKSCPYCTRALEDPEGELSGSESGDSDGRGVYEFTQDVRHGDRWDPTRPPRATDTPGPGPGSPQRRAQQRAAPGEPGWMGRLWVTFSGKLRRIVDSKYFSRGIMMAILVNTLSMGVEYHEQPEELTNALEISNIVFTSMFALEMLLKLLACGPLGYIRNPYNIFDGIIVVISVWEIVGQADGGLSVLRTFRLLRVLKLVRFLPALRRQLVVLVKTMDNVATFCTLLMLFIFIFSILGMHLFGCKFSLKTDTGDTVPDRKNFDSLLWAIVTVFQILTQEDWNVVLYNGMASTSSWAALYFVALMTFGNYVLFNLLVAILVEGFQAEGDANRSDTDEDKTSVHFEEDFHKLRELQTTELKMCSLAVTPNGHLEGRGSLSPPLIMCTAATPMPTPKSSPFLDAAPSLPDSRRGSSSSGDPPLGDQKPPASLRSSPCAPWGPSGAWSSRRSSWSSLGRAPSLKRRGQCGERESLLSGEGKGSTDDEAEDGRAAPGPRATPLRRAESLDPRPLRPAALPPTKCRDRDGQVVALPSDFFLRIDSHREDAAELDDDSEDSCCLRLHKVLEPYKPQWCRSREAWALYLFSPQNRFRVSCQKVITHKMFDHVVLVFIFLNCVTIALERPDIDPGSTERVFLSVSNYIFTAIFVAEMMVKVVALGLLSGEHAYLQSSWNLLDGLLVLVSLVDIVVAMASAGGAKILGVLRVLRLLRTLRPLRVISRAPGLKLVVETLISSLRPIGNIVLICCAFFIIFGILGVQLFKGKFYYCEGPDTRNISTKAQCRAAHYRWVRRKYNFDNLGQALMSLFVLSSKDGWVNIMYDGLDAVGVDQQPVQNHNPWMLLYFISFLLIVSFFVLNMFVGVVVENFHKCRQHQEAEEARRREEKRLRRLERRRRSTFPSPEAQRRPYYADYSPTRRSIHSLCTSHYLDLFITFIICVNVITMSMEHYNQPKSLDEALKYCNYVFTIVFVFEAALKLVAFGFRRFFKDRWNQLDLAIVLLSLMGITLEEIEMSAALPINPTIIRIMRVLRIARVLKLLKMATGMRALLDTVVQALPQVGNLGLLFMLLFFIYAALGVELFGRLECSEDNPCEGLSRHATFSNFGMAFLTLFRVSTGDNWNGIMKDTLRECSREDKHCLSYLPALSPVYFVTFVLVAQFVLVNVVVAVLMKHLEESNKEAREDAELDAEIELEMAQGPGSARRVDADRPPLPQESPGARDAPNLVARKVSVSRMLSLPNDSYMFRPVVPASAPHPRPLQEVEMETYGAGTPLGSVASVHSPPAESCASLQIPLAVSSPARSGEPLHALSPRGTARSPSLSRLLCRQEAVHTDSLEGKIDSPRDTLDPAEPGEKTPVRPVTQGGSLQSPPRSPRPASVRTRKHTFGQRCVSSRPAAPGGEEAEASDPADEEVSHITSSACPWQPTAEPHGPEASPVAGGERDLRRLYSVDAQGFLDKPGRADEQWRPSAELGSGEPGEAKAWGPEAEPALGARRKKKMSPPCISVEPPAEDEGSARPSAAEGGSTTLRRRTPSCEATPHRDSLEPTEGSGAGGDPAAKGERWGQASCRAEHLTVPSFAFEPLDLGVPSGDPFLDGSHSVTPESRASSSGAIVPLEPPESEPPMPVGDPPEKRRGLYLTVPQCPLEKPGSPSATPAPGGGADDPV
DNA damage-inducible transcript 3 protein, sequence (P35639 whole entry): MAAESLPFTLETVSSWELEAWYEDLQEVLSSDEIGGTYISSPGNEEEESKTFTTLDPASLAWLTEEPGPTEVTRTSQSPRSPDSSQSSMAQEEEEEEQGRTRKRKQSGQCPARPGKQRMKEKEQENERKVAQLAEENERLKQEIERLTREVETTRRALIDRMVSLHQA
X-box-binding protein 1, sequence (P17861 whole entry): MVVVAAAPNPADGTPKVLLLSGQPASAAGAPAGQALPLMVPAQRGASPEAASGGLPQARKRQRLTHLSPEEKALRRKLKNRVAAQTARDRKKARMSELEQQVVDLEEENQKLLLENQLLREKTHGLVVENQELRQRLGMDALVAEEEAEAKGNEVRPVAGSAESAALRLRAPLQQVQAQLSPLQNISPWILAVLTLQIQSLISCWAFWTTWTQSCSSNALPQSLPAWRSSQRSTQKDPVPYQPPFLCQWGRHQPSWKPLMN
Nucleotide-binding oligomerization domain-containing protein 2, sequence (Q9HC29 whole entry, the tested form may be a part): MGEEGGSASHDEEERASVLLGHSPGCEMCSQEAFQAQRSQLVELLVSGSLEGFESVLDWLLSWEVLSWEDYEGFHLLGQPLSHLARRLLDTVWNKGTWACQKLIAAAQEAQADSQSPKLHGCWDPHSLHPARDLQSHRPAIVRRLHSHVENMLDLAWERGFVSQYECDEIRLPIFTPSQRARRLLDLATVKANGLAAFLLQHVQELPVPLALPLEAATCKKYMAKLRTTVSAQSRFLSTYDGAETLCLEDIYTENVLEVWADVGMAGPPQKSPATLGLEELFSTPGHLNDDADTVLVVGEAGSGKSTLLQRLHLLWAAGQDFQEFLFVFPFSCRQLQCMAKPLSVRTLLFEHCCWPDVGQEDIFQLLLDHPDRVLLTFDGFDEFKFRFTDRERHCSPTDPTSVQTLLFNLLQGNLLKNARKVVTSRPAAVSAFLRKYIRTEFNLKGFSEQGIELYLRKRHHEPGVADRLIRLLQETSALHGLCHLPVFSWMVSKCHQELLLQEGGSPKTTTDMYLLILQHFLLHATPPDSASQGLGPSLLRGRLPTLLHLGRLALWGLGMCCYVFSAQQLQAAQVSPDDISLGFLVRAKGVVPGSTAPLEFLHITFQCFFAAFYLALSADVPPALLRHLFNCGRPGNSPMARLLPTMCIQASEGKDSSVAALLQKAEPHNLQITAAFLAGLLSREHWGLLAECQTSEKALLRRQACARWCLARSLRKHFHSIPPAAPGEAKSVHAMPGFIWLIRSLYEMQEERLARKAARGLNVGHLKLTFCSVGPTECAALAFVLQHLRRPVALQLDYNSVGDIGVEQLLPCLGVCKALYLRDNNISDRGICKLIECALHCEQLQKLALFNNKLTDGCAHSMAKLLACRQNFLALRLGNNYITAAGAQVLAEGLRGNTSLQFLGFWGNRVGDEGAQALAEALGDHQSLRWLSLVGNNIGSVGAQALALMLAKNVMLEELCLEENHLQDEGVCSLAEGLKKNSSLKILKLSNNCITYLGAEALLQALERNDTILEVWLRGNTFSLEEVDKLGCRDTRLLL
Mucolipin-3, sequence (Q8TDD5 whole entry): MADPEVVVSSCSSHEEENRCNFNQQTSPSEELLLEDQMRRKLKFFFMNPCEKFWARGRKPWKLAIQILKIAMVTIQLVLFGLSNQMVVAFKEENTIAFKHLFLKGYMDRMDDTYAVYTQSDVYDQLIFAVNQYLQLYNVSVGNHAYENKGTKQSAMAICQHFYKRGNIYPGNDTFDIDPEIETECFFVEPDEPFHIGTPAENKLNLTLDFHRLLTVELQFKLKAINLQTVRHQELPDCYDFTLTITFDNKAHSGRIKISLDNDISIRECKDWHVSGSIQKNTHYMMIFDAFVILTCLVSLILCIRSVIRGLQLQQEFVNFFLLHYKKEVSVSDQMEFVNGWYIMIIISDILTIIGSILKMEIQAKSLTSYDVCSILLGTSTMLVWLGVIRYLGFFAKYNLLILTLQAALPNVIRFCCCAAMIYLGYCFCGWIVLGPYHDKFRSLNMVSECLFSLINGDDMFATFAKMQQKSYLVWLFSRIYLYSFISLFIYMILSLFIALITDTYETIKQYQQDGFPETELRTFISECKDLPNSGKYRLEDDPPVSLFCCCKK

On to `C[C@H](NC(=O)c1ccccc1Cl)C(=O)OC(C(=O)Nc1cc(C(F)(F)F)ccc1Cl)c1ccccc1` (stereo partly specified), for which, in assay [1], the 50% effective concentration (EC50) was 4.07 µM (active).

For `Cc1ccc(-n2c(N)c(C(N)=O)sc2=S)cc1`, the IC50 in [2] was 55.1 µM (active); in assay [3] it was > 64 µM (inactive).

Take `COc1cccc(S(=O)(=O)Nc2cccnc2)c1`: the IC50 in assay [4] is > 100 µM (inactive); in [5], > 100 µM (not active).

Turning to `CCCCCCSc1nsc(NC(=O)CCC)n1`, on X-box-binding protein 1, the “Absolute IC50 (XBP1)” value was determined as 10 µM.

Regarding `N#Cc1c(-c2ccccc2)nc(N2CCOCC2)[nH]c1=O`, the IC50 in [6] is > 100 µM (inactive).

Regarding `O=C(CN1C(=O)c2cccnc2Oc2ccc(Cl)cc21)NCCCc1ccccc1`, the EC50 (in [7]; with HEK293 [11]) was > 20 µM (inactive) throughout. For the same compound, the IC50 in the assay on HEK293 [8], in the assay with HEK293 [9], in the assay on HEK293 [10] and in the assay with HEK293 [12] was > 20 µM (inactive) throughout.

As to `O=C(/C=C\c1ccco1)Nc1nc(-c2ccc3ccccc3c2)cs1`, the IC50 on Protein skinhead-1 is > 100 µM (inactive); in the assay with HEK293 [8] it was 3.88 µM (inactive); with HEK293 [9] it was 7.24 µM (active); with HEK293 [10], > 20 µM (inactive); in the assay on HEK293 [12], 3.56 µM (active). The EC50 was > 20 µM (inactive) in [7]; > 20 µM (inactive) in the assay on HEK293 [11]; 73.7 µM (active) in the assay on Streptococcus; > 150 µM (not active) at Streptokinase A; 7.52 µM (active) in assay [13].

On to `CC1=NN(c2ccc(C(=O)O)cc2)C(=O)/C1=C/c1ccc(-c2ccccc2F)o1`, for which the EC50 in assay [14] is > 120 µM (not active); in assay [15], 21.3 µM (inactive); in assay [16] it was > 120 µM (not active); in the assay with H4 it was > 120 µM (not active).

Regarding `COc1ccccc1N(CC(=O)NC(C)(C)C)S(=O)(=O)c1cccs1`, the EC50 on Ion channel NompC is > 29.9 µM (inactive); on Mucolipin-3, > 29.9 µM (not active).

Consider `CC(C)(C)c1csc(NC(=O)Cn2c(=O)oc3ccccc32)n1`, for which the AC50 in [17] was > 100 µM (inactive). Also, in [1], the concentration for a half-maximal effect (EC50) is 1.5 µM (active).

Take `COc1ccc(Cc2nc3ccccc3n2CC(=O)N/N=C/c2ccc(C)cc2O)cc1OC`: in assay [18], the “Absolute IC50 (CHOP)” value was found to be 10 µM.

In the case of `O=[N+]([O-])c1ccc(O)c(/C=N/Nc2ccccc2Cl)c1`, the “Absolute IC50 (CHOP)” value in assay [18] is 10 µM. The “Absolute IC50 (XBP1)” value at X-box-binding protein 1 was 10 µM.

`C[N+](C)(C)c1ccc(/C=N/Nc2nc(Cl)c(C#N)c(Cl)c2Cl)cc1`: the half-maximal effective concentration (EC50) (with Streptococcus; on Streptokinase A; in assay [13]) was > 150 µM (not active) in each case. In addition, in assay [3], the IC50 was > 64 µM (inactive).

On to `COc1ccc2[nH]c(SCC(=O)c3ccc(O)c(O)c3)nc2c1`, for which the IC50 in [19] is 6.17 µM (active); in assay [4], 19.3 µM (active); in assay [5], > 100 µM (not active).

Broadly, the EC50 is the concentration needed to bring the measured effect to its halfway point. For orientation: IC50 means the concentration at which inhibition is half-maximal. For orientation: AC50 means the midpoint of the concentration-response curve, whichever way the signal moves.
